In patent US20240315937A1, “STABLE EFFICIENT COSMETIC PREPARATIONS” (YISSUM RESEARCH DEVELOPMENT COMPANY OF THE HEBREW …, priority 2021, published 2024):

How the values were obtained:
[1] = Force degradation of 2% CBD cream (CBD assay by HPLC); type: physicochemical; settings: vs untreated reference
Procedure: Samples were prepared by the following method: • 1. 200 mg 2% CBD cream vs. Blank (7 mL vials), • 2. Subjected to Oxidation/Base/Acid/Heat/UV conditions (see below), • 3. Mixing with 4 mL DMSO, • 4. Sonication, 30 min, • 5. Shaking, 1 h, • 6. Centrifugation at 4000 rpm, 5 min, • 7. Filtration by 0.22 μm PTFE, • 8. HPLC sample preparation and HPLC protocol as above.
Samples were subjected to the following force degradation conditions and tested for CBD content: • Heat: 200 mg cream was heated at 100° C. (oil bath) for 6 h; • UV: 200 mg cream was exposed to the sun for 3 h; • Acidic conditions: 200 mg cream was treated with 150 μl 9M HCl (aq.) for 1 h and neutralized with 150 μl 9M NaOH; • Basic conditions: […] μl 1M HCl; • Oxidation: 200 mg of cream was treated with 1 ml 30% H2O2 for 2 h; CBD assay % was calculated according to the untreated reference.

[2] = Dissolution of CBD in oil solvents of the creams; type: physicochemical; settings: CBD 2%; medium-chain triglycerides (MCT) and sesame oil
Procedure: The main tested parameters included the following: • 1. Reduction of ethanol: Ethanol is generally considered a co-solvent of CBD. The concentration of ethanol was reduced from initial to final preparations, starting from 3.6% and 0.9% to no ethanol in the final preparations, where CBD was dissolved directly in sesame oil (see for example CBD #34 in Table 13 below). • 2. Selection of an antioxidant: The selected antioxidants were BHT and propyl gallate, in various combinations and proportions. […] Due to this property, the final preparations contained 0.05% BHT (see Table 13, CBD #34). • 3. Selection of an oil: Oil is a known solvent for CBD. Various oils were tested as optional solvents in the cosmetic creams of the invention. […] Both MCT and sesame oil have antioxidants properties (see Table 13, CBD #34).

## C=C(C)[C@@H]1CCC(C)=C[C@H]1c1c(O)cc(CCCCC)cc1O [CBD, cannabidiol]
[1]; Acid: 200 mg 2% CBD cream, 150 μl 9M HCl, 1 h
  CBD assay: 67.7%
[1]; Base: 200 mg 2% CBD cream, 200 μl 1M NaOH, time point 1 h
  CBD assay: 81.9%
[1]; Heat: 200 mg 2% CBD cream at 100° C. (oil bath), 6 h
  CBD assay: 87.8%
[1]; Oxidation: 200 mg 2% CBD cream, 1 ml 30% H2O2, 2 h
  CBD assay: 63.5%
[1]; UV: 200 mg 2% CBD cream exposed to the sun, 3 h
  CBD assay: 98.4%
[2]
  dissolution of CBD in oil solvent: complete dissolution
